Measurements taken from patent US8389764B2, “Urea and sulfamide derivatives as inhibitors of TAFIa” (Sanofi, priority 2006, dated 2013).
Numbered stars: 1 amine (or outer) side, 2 acyl side, 3 side chain; on linkers, the order of the positions; unused ones are H or OH. Square brackets hold non-standard residues; d marks the D form. Peptide text beside a SMILES is read from it. * marks the point of attachment. aIle = CC[C@@H](C)[C@H](N)C(=O)O; dCha = N[C@H](CC1CCCCC1)C(=O)O; Ac5c = NC1(C(=O)O)CCCC1; Cbz = O=C(OCc1ccccc1)*; Aib = CC(C)(N)C(=O)O; CO = O=C([*:1])[*:2]

The compounds below were run against T1, TAFIa (Homo sapiens, UniProt Q96IY4) (assay: TAFIa inhibition, Actichrome plasma TAFI activity kit (American Diagnostica)). Settings: 15 min preincubation at room temperature, read at 420 nm, duplicate determination of serial dilutions.
T1 construct: purchased American Diagnostica 874TAFIA
T1 sequence (Q96IY4 115-423): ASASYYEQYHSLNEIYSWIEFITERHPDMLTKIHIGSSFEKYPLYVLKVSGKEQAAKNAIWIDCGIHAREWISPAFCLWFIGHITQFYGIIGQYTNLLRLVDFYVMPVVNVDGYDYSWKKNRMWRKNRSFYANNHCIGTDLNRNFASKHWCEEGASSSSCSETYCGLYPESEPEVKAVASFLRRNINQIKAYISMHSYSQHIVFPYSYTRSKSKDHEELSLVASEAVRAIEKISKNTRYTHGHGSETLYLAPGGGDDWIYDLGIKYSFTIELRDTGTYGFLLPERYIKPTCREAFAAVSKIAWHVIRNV
Assay type: biochemical
Procedure: The enzymic reaction was started by adding 10 μl of TAFIa developer (prediluted 1:2 with assay buffer).
The IC50 values were calculated from the averaged values (duplicate determination) of serial dilutions of the substance with the aid of the Softmax Pro software (version 4.8; Molecular Devices).

IC50 [nM] | SMILES
1420 | CC(C)CCNC(=O)[C@@H](CCCCNC(=O)OCc1ccccc1)NC(=O)N[C@@H](CCCCN)C(=O)O [Example 2]
979 | CCNC(=O)[C@@H](NC(=O)[C@@H](CC1CCCCC1)NC(=O)N[C@@H](CCCCN)C(=O)O)C(C)C [Example 10] ({Lys-CO}-[dCha]-Val-NHEt)
644 | NCCCC[C@H](NC(=O)N[C@H](CC1CCCCC1)C(=O)NCc1ccc(F)cc1F)C(=O)O [Example 11, (S)-6-Amino-2-{3-[(R)-2-cyclohexyl-1-(2,4-difluoro-benzylcarbamoyl)-ethyl]-ureido}-hexanoic acid]
1260 | CC(CNC(=O)[C@@H](CC1CCCCC1)NC(=O)N[C@@H](CCCCN)C(=O)O)c1ccccc1 (stereo partly drawn) [Example 12]
1260 | Cc1ccccc1CCNC(=O)[C@@H](CC1CCCCC1)NC(=O)N[C@@H](CCCCN)C(=O)O [Example 13]
353 | CC1CCCCC1NC(=O)[C@@H](CC1CCCCC1)NC(=O)N[C@@H](CCCCN)C(=O)O (stereo partly drawn) [Example 19]
904 | COc1ccc(CNC(=O)[C@@H](CC2CCCCC2)NC(=O)N[C@@H](CCCCN)C(=O)O)cc1 [Example 21]
463 | COC(=O)C(C)(C)NC(=O)[C@@H](CCCCNC(=O)OCc1ccccc1)NC(=O)N[C@@H](CCCCN)C(=O)O [Example 25] ({Lys-CO}-[dK](Cbz)-[Aib]-OMe)
487 | Cc1cccc(CNC(=O)[C@@H](CC2CCCCC2)NC(=O)N[C@@H](CCCCN)C(=O)O)c1C [Example 26]
118 | NCCCC[C@H](NC(=O)N[C@H](CC1CCCCC1)C(=O)NCC(c1ccccc1)c1ccccc1)C(=O)O [Example 28]
76 | C[C@H]1CC[C@H](NC(=O)[C@@H](CC2CCCCC2)NC(=O)N[C@@H](CCCCN)C(=O)O)CC1 [Example 31]
753 | CCOC(=O)[C@H](CC(C)C)NC(=O)[C@@H](CCCCNC(=O)OCc1ccccc1)NC(=O)N[C@@H](CCCCN)C(=O)O [Example 32] ({Lys-CO}-[dK](Cbz)-Leu-OEt)
190 | CCOC(=O)[C@@H]1CCCC[C@@H]1NC(=O)[C@@H](CCCCNC(=O)OCc1ccccc1)NC(=O)N[C@@H](CCCCN)C(=O)O [Example 33]
1080 | CC(CNC(=O)[C@@H](CCCCNC(=O)OCc1ccccc1)NC(=O)N[C@@H](CCCCN)C(=O)O)c1ccccc1 (stereo partly drawn) [Example 34]
537 | CC[C@H](C)[C@H](NC(=O)[C@@H](CCCCNC(=O)OCc1ccccc1)NC(=O)N[C@@H](CCCCN)C(=O)O)C(=O)OC [Example 37]
297 | CCOC(=O)[C@@H](NC(=O)[C@@H](CCCCNC(=O)OCc1ccccc1)NC(=O)N[C@@H](CCCCN)C(=O)O)C(C)C [Example 38] ({Lys-CO}-[dK](Cbz)-Val-OEt)
1140 | COC(=O)C1(NC(=O)[C@@H](CCCCNC(=O)OCc2ccccc2)NC(=O)N[C@@H](CCCCN)C(=O)O)CCCC1 [Example 39] ({Lys-CO}-[dK](Cbz)-[Ac5c]-OMe)
90 | CC1CCCC(NC(=O)[C@@H](CC2CCCCC2)NC(=O)N[C@@H](CCCCN)C(=O)O)C1 (stereo partly drawn) [Example 41]
839 | CC1CCCCC1NC(=O)[C@@H](CCCCNC(=O)OCc1ccccc1)NC(=O)N[C@@H](CCCCN)C(=O)O (stereo partly drawn) [Example 42]

IC50 [nM] | SMILES
46 | NCCCC[C@H](NC(=O)N[C@H](CCCCNC(=O)OCc1ccccc1)C(=O)NC1C[C@@H]2CC[C@H]1C2)C(=O)O (stereo partly drawn) [Example 43]
144 | C[C@H](NC(=O)[C@@H](CCCCNC(=O)OCc1ccccc1)NC(=O)N[C@@H](CCCCN)C(=O)O)c1ccc(Cl)cc1 [Example 44]
106 | CCOC(=O)[C@@H](NC(=O)[C@@H](CC1CCCCC1)NC(=O)N[C@@H](CCCCN)C(=O)O)C(C)C [Example 49] ({Lys-CO}-[dCha]-Val-OEt)
544 | CC[C@@H](C)[C@H](NC(=O)[C@@H](CC1CCCCC1)NC(=O)N[C@@H](CCCCN)C(=O)O)C(=O)OC [Example 57] ({Lys-CO}-[dCha]-[aIle]-OMe)
757 | NCCCC[C@H](NC(=O)N[C@H](CC1CCCCC1)C(=O)N[C@@H]1CC1c1ccccc1)C(=O)O (stereo partly drawn) [Example 64]
1050 | CCC(C)CNC(=O)[C@@H](CC1CCCCC1)NC(=O)N[C@@H](CCCCN)C(=O)O (stereo partly drawn) [Example 69]
167 | CC1CCCC(NC(=O)[C@@H](CC2CCCCC2)NC(=O)N[C@@H](CCCCN)C(=O)O)C1C (stereo partly drawn) [Example 72]
47 | NCCCC[C@H](NC(=O)N[C@H](CC1CCCCC1)C(=O)NC1CCc2ccccc2C1)C(=O)O (stereo partly drawn) [Example 73]
19 | NCCCC[C@H](NC(=O)N[C@H](CC1CCCCC1)C(=O)NC1C2CC3CC(C2)CC1C3)C(=O)O (stereo partly drawn) [Example 74]
653 | CC(C)CC(C)NC(=O)[C@@H](CC1CCCCC1)NC(=O)N[C@@H](CCCCN)C(=O)O (stereo partly drawn) [Example 75]
845 | CC(C)CNC(=O)[C@@H](CC1CCCCC1)NC(=O)N[C@@H](CCCCN)C(=O)O [Example 76]
3 | CC1(C)C2CCC1(C)[C@@H](NC(=O)[C@@H](CC1CCCCC1)NC(=O)N[C@@H](CCCCN)C(=O)O)C2 (stereo partly drawn) [Example 77]
305 | NCCCC[C@H](NC(=O)N[C@H](CC1CCCCC1)C(=O)NCC12CC3CC(CC(C3)C1)C2)C(=O)O [Example 78]
31 | NCCCC[C@H](NC(=O)N[C@H](CC1CCCCC1)C(=O)NC12CC3CC(CC(C3)C1)C2)C(=O)O [Example 79]
654 | C[C@@H]1C(CNC(=O)[C@@H](CC2CCCCC2)NC(=O)N[C@@H](CCCCN)C(=O)O)CC2C[C@@H]1C2(C)C (stereo partly drawn) [Example 84]
39 | NCCCC[C@H](NC(=O)N[C@H](CC1CCCCC1)C(=O)N[C@H]1CCc2ccccc2C1)C(=O)O [Example 85]
60 | CC(C)(C)C1CCC(NC(=O)[C@@H](CC2CCCCC2)NC(=O)N[C@@H](CCCCN)C(=O)O)CC1 (stereo partly drawn) [Example 86]
393 | Nc1ccc(CC(NC(=O)N[C@H](CC2CCCCC2)C(=O)NC2CC3CCC2C3)C(=O)O)cn1 (stereo partly drawn) [Example 88]
4 | CC1(C)[C@@H]2CC[C@@]1(C)[C@@H](NC(=O)[C@@H](CC1CCCCC1)NC(=O)N[C@@H](CCCNC(=N)N)C(=O)O)C2 [Example 91]

IC50 [nM] | SMILES
160 | NCCCC[C@H](NC(=O)N[C@H](CC1CCCCC1)C(=O)NC1CCC2CCCCC2C1)C(=O)O (stereo partly drawn) [Example 92]
1500 | CC1(C)[C@@H]2CC[C@@]1(C)[C@@H](NC(=O)[C@@H](CC1CCCCC1)NC(=O)N[C@@H](Cc1ccc(N)nc1)C(=O)O)C2 [Example 93]
109000 | CC1(C)[C@@H]2CC[C@@]1(C)[C@@H](NC(=O)[C@@H](CC1CCCCC1)NC(=O)N[C@H](Cc1ccc(N)nc1)C(=O)O)C2 [Example 94]
41000 | CC1(C)[C@@H]2CC[C@@]1(C)C(NC(=O)CC(CC1CCCCC1)NC(=O)N[C@@H](CCCN)C(=O)O)C2 (stereo partly drawn) [Example 95]
15 | CC1(C)[C@@H]2CC[C@@]1(C)C(NC(=O)[C@@H](Cc1ccccc1)NC(=O)N[C@@H](CCCCN)C(=O)O)C2 (stereo partly drawn) [Example 96]
462 | CC(C)[C@@H](NC(=O)N[C@@H](CCCCN)C(=O)O)C(=O)N[C@H]1C[C@H]2CC[C@]1(C)C2(C)C [Example 97]
1040 | CC1(C)[C@@H]2CC[C@@]1(C)C(NC(=O)[C@H](NC(=O)N[C@@H](CCCCN)C(=O)O)C1CCCCC1)C2 (stereo partly drawn) [Example 98]
57 | CC(C)C[C@@H](NC(=O)N[C@@H](CCCCN)C(=O)O)C(=O)NC1C[C@H]2CC[C@]1(C)C2(C)C (stereo partly drawn) [Example 99]
15 | CCC[C@@H](NC(=O)N[C@@H](CCCCN)C(=O)O)C(=O)N[C@H]1C[C@H]2CC[C@]1(C)C2(C)C [Example 103]
1100 | CC1(C)C2CC[C@@]1(C)[C@@H](NC(=O)[C@@H](CC1CCCCC1)NC(=O)N[C@@H](CCONC(=N)N)C(=O)O)C2 [Example 107]
7 | CC1(C)[C@@H]2CC[C@@]1(C)[C@@H](NC(=O)[C@@H](CC1CC1)NC(=O)N[C@@H](CCCCN)C(=O)O)C2 [Example 108]
9 | CC1(C)[C@@H]2CC[C@@]1(C)[C@@H](NC(=O)[C@@H](CC1CCC1)NC(=O)N[C@@H](CCCCN)C(=O)O)C2 [Example 109]
6 | CC1(C)[C@@H]2CC[C@@]1(C)[C@@H](NC(=O)[C@@H](CC1CCCCC1)NC(=O)NC(Cc1ccc(N)nc1)C(=O)O)C2 (stereo partly drawn) [Example 110]
4 | CC1(C)[C@@H]2CC[C@@]1(C)[C@@H](NC(=O)C(CC1CCCC1)NC(=O)N[C@@H](CCCCN)C(=O)O)C2 (stereo partly drawn) [Example 111]
747 | CC(C)[C@H](NC(=O)[C@@H](CCCCNC(=O)OCc1ccccc1)NC(=O)N[C@@H](CCCCN)C(=O)O)C(=O)NCCCc1ccccc1 [Example 113]
519 | CC(C)[C@H](NC(=O)[C@@H](CCCCNC(=O)OCc1ccccc1)NC(=O)N[C@@H](CCCCN)C(=O)O)C(=O)N[C@@H]1C[C@H]2CC[C@@H]1C2 [Example 114]
239 | CC(C)[C@H](NC(=O)[C@@H](CCCCNC(=O)OCc1ccccc1)NC(=O)N[C@@H](CCCCN)C(=O)O)C(=O)NC1C[C@@H]2CC[C@H]1C2 (stereo partly drawn) [Example 115]
267 | CCOC(=O)[C@@H](NC(=O)[C@@H](NC(=O)[C@@H](CCCCNC(=O)OCc1ccccc1)NC(=O)N[C@@H](CCCCN)C(=O)O)C(C)C)C(C)C [Example 118] ({Lys-CO}-[dK](Cbz)-Val-Val-OEt)
1300 | CC(C)[C@H](NC(=O)[C@@H](CCCCNC(=O)OCc1ccccc1)NC(=O)N[C@@H](CCCCN)C(=O)O)C(=O)N[C@@H](C)c1ccc(Cl)cc1 [Example 119]
